Legend:
[1] = biological target: T1, SNARE complex (SNAP25, SynH3, Vps) (UniProt P60879+P63045+Q16623); test: SDS-PAGE analysis of SNARE complex formation; format: biochemical; conditions: for SNARE complex formation (%): control = 100, footnote: [phenolic compound]:SNAP-25 = 1:1, SNARE proteins 10 μM each, polyphenol 100 μM, room temperature 30 min
T1 construct: SynH3 (AF217197); Vps (NM012663); made in house; host or cells: E. coli (Codon (+) RIL, Novagen)
Method: A SNARE complex is strong enough so as not to be untwisted by SDS. On the basis of such a property, a SDS-PAGE analysis was performed in order to determine the formation of a SNARE complex. Polyphenol compounds used in the present Example were purchased from Sigma-Aldrich, Wako Chemical, and Extrasynthese.
In order to produce SNARE proteins, SNARE proteins, such as, SNAP25 (NM011428), syntaxin 1A (AF217197), VAMP2 (NM012663), SynH3 (AF217197), and Vps (NM012663), were purified in biologically transformed E. coli (Codon (+) RIL, Novagen).
Then, the materials were quickly mixed by a vortex, and were reacted at room temperature for 30 minutes. […]

[2] = biological target: T2, membrane fusion caused by SNARE (SNAP25, syntaxin 1A, VAMP2) (UniProt P60879+P63045+Q16623); test: Membrane fusion assay with SNARE-reconstituted liposomes (fluorescence); format: biochemical; conditions: for Membrane fusion caused by SNARE (% of fusion without inhibitor) / remaining activity at 20 µM: 20 μM phenolic compound, 100% = no inhibitor added; for remaining activity at 20 µM: read-out: Membrane fusion caused by SNARE (% of fusion without inhibitor)
T2 construct: made in house; host or cells: E. coli (Codon (+) RIL, Novagen)
T2 sequence (P60879 whole entry, the tested form may be a part): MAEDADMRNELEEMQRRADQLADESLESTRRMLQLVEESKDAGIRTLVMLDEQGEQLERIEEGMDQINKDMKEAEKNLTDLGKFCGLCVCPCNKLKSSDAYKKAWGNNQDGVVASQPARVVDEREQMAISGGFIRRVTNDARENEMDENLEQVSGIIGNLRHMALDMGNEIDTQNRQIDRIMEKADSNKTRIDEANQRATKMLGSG
T2 sequence (Q16623 whole entry, the tested form may be a part): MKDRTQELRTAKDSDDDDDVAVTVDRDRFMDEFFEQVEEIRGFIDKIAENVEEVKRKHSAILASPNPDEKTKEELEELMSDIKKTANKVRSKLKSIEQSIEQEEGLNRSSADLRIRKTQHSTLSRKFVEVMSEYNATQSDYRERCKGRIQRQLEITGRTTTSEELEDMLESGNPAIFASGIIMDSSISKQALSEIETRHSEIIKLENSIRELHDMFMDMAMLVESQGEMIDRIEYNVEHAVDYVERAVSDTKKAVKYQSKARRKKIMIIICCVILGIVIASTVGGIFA
T2 sequence (P63045 whole entry, the tested form may be a part): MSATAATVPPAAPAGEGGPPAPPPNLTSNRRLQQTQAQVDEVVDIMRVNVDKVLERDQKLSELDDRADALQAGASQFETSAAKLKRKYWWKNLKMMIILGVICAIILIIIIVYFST
Method: In order to produce SNARE proteins, SNARE proteins, such as SNAP25 (NM011428), syntaxin 1A (AF217197), and VAMP2 (NM012663), were purified in biologically transformed E. coli (Codon (+) RIL, Novagen).
In order to prepare liposome (fine membrane) marked with a fluorescent substance, POPC (62 mol %), DOPS (35 mol %), NBD-PS (1.5 mol %) and a fluorescent substance Rhodamin-PE (1.5 mol %) were mixed to obtain 10 mM of liposome (v-vesicle). Also, in order to prepare a liposome not marked with a fluorescent substance, DOPS and POPC were mixed in a molar concentration ratio of 35:65 to obtain 50 mM of liposome (t-vesicle). In order to prepare a complex of the purified SNAP25 and syntaxin 1a, the SNAP25 and the syntaxin 1a were mixed in a molar concentration ratio of 1:1, and then were reacted at room temperature for 1 hour. Then, the resultant mixture and the liposome not marked with a fluorescent substance were mixed in a molar ratio of 100:1. The VAMP2 and the liposome marked with a fluorescent substance were mixed in a molar ratio of 50:1. Then, each of the two kinds of liposomes was dialyzed by using 10 kDa dialyzing membrane through agitation at 4° C. for 24 hours, and the liposomes were mixed in a ratio of 3:7 (v-vesicle t-visicle). Next, fluorescence was measured by using a fluorometer (SpectraMax M2 manufactured by Molecular Device).
Herein, 100% indicates the degree of membrane fusion in the state where no inhibitor was added. As the value is smaller, the inhibiting degree is higher.

[3] = molar concentration ratio phenolic compound:SNAP-25, average of at least three measurements

T1 sequence (P60879 whole entry): as the sequence (P60879 whole entry, the tested form may be a part) above
T1 sequence (Q16623 192-254 limits assumed): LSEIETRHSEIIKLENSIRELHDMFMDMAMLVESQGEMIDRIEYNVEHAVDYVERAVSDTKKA
T1 sequence (P63045 2-94 limits assumed): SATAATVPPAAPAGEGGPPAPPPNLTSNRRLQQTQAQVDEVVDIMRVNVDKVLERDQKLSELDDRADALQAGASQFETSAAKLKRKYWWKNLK

| SMILES | SNARE complex formation (%) [1] [%] | remaining activity at 20 µM [2] [%] | further results |
| --- | --- | --- | --- |
| Oc1cc(O)c2c(c1)O[C@H](c1ccc(O)c(O)c1)[C@@H](O)C2 [(+)-Catechin] | 105.02 ± 11.37 | – | Membrane fusion caused by SNARE (% of fusion without inhibitor) [2]: 89.15 ± 1.19% |
| Oc1cc(O)c2c(c1)O[C@H](c1ccc(O)c(O)c1)[C@H](O)C2 [(−)-Epicatechin] | 114.55 ± 5.00 | – | Membrane fusion caused by SNARE (% of fusion without inhibitor) [2]: 97.98 ± 1.50% |
| O=c1cc(-c2ccc(O)cc2)oc2cc(O)cc(O)c12 [Apigenin] | 96.94 ± 7.99 | 96.9 ± 7.99 | – |
| O=C(O)/C=C/c1ccc(O)c(O)c1 [Caffeic acid] | 93.33 ± 12.20 | 125 ± 7.45 | – |
| O=C(/C=C/c1ccc(O)c(O)c1)O[C@@H]1C[C@](O)(C(=O)O)C[C@@H](O)[C@H]1O [Chlorogenic acid] | 100.78 ± 13.62 | 134 ± 1.49 | – |
| O=c1cc(-c2ccccc2)oc2cc(O)cc(O)c12 [Chrysin] | 98.12 ± 6.56 | 121 ± 1.27 | – |
| Oc1cc(O)c2cc(O)c(-c3ccc(O)c(O)c3)[o+]c2c1 [Cyanidin] | 67.12 ± 20.31 | 7.23 ± 1.08 | – |
| O=c1c(-c2ccc(O)cc2)coc2cc(O)ccc12 [Daidzein] | 104.06 ± 24.43 | 113 ± 13.1 | – |
| Oc1cc(O)c2cc(O)c(-c3cc(O)c(O)c(O)c3)[o+]c2c1 [Delphinidin] | 60.53 ± 18.88 | 37.5 ± 3.45 | – |
| O=C(O[C@@H]1Cc2c(O)cc(O)cc2O[C@@H]1c1cc(O)c(O)c(O)c1)c1cc(O)c(O)c(O)c1 [EGCG, Epigallocatechin gallate] | 112.38 ± 10.43 | – | Membrane fusion caused by SNARE (% of fusion without inhibitor) [2]: 57.59 ± 3.39 % |
| O=c1c(O)c(-c2ccc(O)c(O)c2)oc2c(O[C@@H]3O[C@H](CO)[C@@H](O)[C@H](O)[C@H]3O)c(O)cc(O)c12 [Gossypin] | – | – | Membrane fusion caused by SNARE (% of fusion without inhibitor) [2]: 103.19 ± 9.01% |

More lines, main results first:

| SNARE complex formation (%) [1] [%] | remaining activity at 20 µM [2] [%] | SMILES | further results |
| --- | --- | --- | --- |
| 87.54 ± 9.50 | 22 ± 2.05 | O=c1oc2c(O)c(O)cc3c(=O)oc4c(O)c(O)cc1c4c23 [Ellagic acid] | Inhibition of SNARE complex formation (in words) ([1]; FIG. 2, concentration series): inhibit the formation of a SNARE complex by 50% at a low concentration; Ratio for inhibition by 50% (IR50), SNARE complex formation [1, 3]: 27.8; Reduction of membrane fusion (in words) ([2]; FIG. 3): can reduce membrane fusion; Ratio for inhibition by 50% (IR50), membrane fusion [2, 3]: 7.31 |
| 93.38 ± 14.39 | 118 ± 2.79 | COc1cc(/C=C/C(=O)O)ccc1O [Ferulic acid] | – |
| 90.14 ± 10.42 | 32.1 ± 4.14 | O=c1c(O)c(-c2ccc(O)c(O)c2)oc2cc(O)ccc12 [Fisetin] | – |
| 96.76 ± 8.91 | 119 ± 18.1 | O=c1c(-c2ccc(O)cc2)coc2cc(O)cc(O)c12 [Genistein] | – |
| 100.16 ± 2.19 | 96.7 ± 2.38 | O=C(O)c1cc(O)ccc1O [Gentisic acid] | – |
| 99.04 ± 5.17 | – | COc1cc2c(c(OC)c1OC)-c1c(cc3c(c1OC)OCO3)C[C@H](C)[C@H](C)C2 [Gomisiin N] | Membrane fusion caused by SNARE (% of fusion without inhibitor) [2]: 92.31 ± 2.37% |
| 97.99 ± 0.87 | – | COc1cc2c(c(OC)c1OC)-c1c(cc3c(c1OC)OCO3)C[C@H](C)[C@](C)(O)C2 [Gomisin A] | Membrane fusion caused by SNARE (% of fusion without inhibitor) [2]: 79.63 ± 7.58% |
| 114.55 ± 5.00 | 107 ± 2.29 | COc1ccc([C@@H]2CC(=O)c3c(O)cc(O)cc3O2)cc1O [Hesperetin] | – |
| – | 107 ± 6.72 | O=c1c(O)c(-c2ccc(O[C@@H]3O[C@H](CO)[C@@H](O)[C@H](O)[C@H]3O)c(O)c2)oc2cc(O)cc(O)c12 [Spiraeoside] | – |
| – | 109 ± 3.92 | O=C1c2c(O)cc(O)cc2O[C@H](c2ccc(O)c(O)c2)[C@H]1O [Taxifolin] | – |
